{"source": "patent US8283368B2", "about": "“Selective ligands for the dopamine 3 (D3) receptor and methods of using the same” (The Regents of the University of Michigan, priority 2008, dated 2012)", "key": {"D2 receptor [1]": {"molecular_target": "T1, D2 receptor (Rattus norvegicus, UniProt P61169)", "T1 sequence (P61169 whole entry)": "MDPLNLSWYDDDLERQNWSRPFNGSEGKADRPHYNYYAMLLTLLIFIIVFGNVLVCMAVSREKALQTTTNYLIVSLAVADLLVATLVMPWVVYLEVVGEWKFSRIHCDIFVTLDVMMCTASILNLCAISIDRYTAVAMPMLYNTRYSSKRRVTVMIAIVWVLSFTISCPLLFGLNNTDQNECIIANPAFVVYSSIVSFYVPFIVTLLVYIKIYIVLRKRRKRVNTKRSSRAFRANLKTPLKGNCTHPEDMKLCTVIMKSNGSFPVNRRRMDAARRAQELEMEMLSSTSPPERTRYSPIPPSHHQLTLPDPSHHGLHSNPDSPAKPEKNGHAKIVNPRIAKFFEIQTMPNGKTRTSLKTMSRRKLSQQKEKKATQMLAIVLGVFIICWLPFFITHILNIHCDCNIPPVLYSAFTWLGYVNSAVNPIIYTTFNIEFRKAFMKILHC", "assay": "[3H]Spiperone binding assay for D2-like receptors, rat caudate-putamen membranes", "design": "from tissue; host or cells: rat caudate-putamen membranes", "settings": "for Ki: rat brain", "protocol": "(§1) All other Ki values are based on a single-site model.\n(§2) Determination of D3 dopamine receptor affinity and selectivity were performed in membranes prepared from the brains of adult, male Sprague-Dawley rats (Harlan Sprague-Dawley, Indianapolis, Ind.). All compounds were dissolved in 100% ethanol at a concentration of 5 mM.\n[^3H]Spiperone binding assays. […] Assays were performed using membranes prepared from rat caudate-putamen, which predominantly express the D2 subtype of D2-like receptors, and the final membrane homogenate concentration was 1.5 mg o.w.w./ml. The assay buffer was 50 mM Tris-HCl, 5 mM KCl, 2 mM MgCl2, and 2 mM CaCl2, pH 7.4 at 23° C.; the concentration of [^3H]spiperone (24 Ci/mmol; Amersham) was 0.2 nM; and the incubation time was 90 minutes at 23° C. Nonspecific binding was defined in the presence of 1 μM (+)-butaclamol."}, "D3 receptor": {"molecular_target": "T2, D3 receptor (Rattus norvegicus, UniProt P19020)", "T2 construct": "membranes prepared from the brains of adult, male Sprague-Dawley rats; from tissue; host or cells: rat ventral striatum (nucleus accumbens and olfactory tubercles) membranes", "T2 sequence (P19020 whole entry)": "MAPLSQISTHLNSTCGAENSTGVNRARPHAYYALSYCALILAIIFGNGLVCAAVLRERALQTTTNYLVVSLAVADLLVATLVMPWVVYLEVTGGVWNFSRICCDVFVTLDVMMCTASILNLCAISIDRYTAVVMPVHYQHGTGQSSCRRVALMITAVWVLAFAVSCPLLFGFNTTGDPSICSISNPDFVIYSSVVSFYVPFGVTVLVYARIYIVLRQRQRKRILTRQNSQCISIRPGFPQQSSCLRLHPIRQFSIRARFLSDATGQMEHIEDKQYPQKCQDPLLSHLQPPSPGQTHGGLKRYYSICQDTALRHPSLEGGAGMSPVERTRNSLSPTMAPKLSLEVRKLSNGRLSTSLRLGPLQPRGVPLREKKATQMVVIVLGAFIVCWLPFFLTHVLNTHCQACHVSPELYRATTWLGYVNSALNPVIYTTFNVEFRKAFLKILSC", "assay": "[3H]PD 128907 binding assay for D3 receptors, rat ventral striatum membranes", "settings": "for less potent than compound 6 to the D3 receptor: Ki compared with compound 6; for Selectivity D1-like/D3 / Selectivity D2-like/D3: ratio of Ki values, Table 1", "protocol": "as §1, §2\nRat ventral striatum (nucleus accumbens and olfactory tubercles) was prepared in assay buffer (50 mM Tris, 1 mM EDTA; pH 7.4 at 23° C.) to yield a final concentration of 10 mg original wet weight (o.w.w.)/ml. […] Nonspecific binding was defined by 1 μM spiperone. Assay tubes were incubated at 23° C. for 3 hours. The reaction was terminated by rapid vacuum filtration."}, "[2]": {"molecular_target": "D1-like dopamine receptors", "assay": "[3H]SCH 23390 binding assay for D1-like dopamine receptors, rat brain membranes", "settings": "single-site model, read-out: Ki ± SEM D1-like [3H]SCH23390", "protocol": "as §1, §2"}, "D2 receptor [3]": {"molecular_target": "T1, D2 receptor", "assay": "In vivo hypothermia assay in rats (D2 agonist activity)", "design": "compounds 5, 6, and 12 in yawning and hypothermia assays in rats; from tissue; host or cells: living rats (Harlan), core body temperature read-out", "settings": "for in vivo functional activity at the D2 receptor: concluded from hypothermia in rats; for induction of hypothermia / changes in body temperature: rats, s.c.", "protocol": "Recently, in vivo functional assays for the D3 and D2 receptors have been validated. (24,25). […] By employing these validated assays, compounds 5, 6, and 12 were evaluated for their in vivo functional activity at the D3 and D2 receptors.\n(§3) Rats were purchased from Harlan (Indianapolis, Ind.) and housed three to a cage for yawning studies, and one to a cage for hypothermia studies. […] Yawning studies were performed as previously described (24,25), with yawning defined as a prolonged (about 1 second), wide opening of the mouth followed by a rapid closure. […] Yawning was recorded for 30 minutes after each injection. […] Yawns and changes in core body temperature are presented as the mean±standard error of the mean (SEM) with 8 (yawning) or 6 (hypothermia) rats per group."}, "Aqueous solubility": {"assay": "Aqueous solubility", "type": "physicochemical"}, "[4]": {"settings": "background statement on known compounds; cited from earlier work"}, "D2 receptor [5]": {"molecular_target": "T1, D2 receptor", "assay": "Alteration of pramipexole induced hypothermia in rats", "type": "in vivo", "design": "compounds 5, 6, and 12 in yawning and hypothermia assays in rats; from tissue; host or cells: living rats (Harlan), core body temperature read-out", "settings": "rats pretreated with 10.0 or 32.0 mg/kg", "protocol": "as §3"}, "[6]": {"settings": "single-site model, read-out: Ki ± SEM D2 [3H]Spiperone"}, "[7]": {"settings": "rat brain, single-site model, mean±SEM of three to five determinations, read-out: Ki ± SEM D3 [3H]PD128907"}, "[8]": {"settings": "2-site fit, high affinity component, read-out: Ki ± SEM D2 [3H]Spiperone, high affinity component (h)"}, "[9]": {"settings": "2-site fit, low affinity component, read-out: Ki ± SEM D2 [3H]Spiperone, low affinity component (1)"}}, "note": "“Also recorded” adds a separate entry of the source. Where two headings read alike, the source gives them in different places."}
{"smiles": "Nc1nc2c(s1)C[C@@H](N(CCC1CCCCC1)CC[C@H]1CC[C@H](NC(=O)c3ccc4ccccc4c3)CC1)CC2", "note": "[Compound 9, Trans-N-(-4-(2-(((S)-2-amino-4,5,6,7-tetrahydrobenzo[d]thiazol-6-yl)(2-cyclohexylethyl)amino)ethyl)cyclohexyl)-2-naphthamide]", "values": [{"measurement": "less potent than compound 6 to the D2 receptor", "setting": "D2 receptor [1]; Ki compared with compound 6", "result": 3, "unit": "times"}, {"measurement": "Ki", "setting": "D2 receptor [1]; [6]", "result": 1200, "unit": "nM"}, {"measurement": "Ki", "setting": "D3 receptor; [7]", "result": "23 ± 2.7", "unit": "nM"}]}
{"smiles": "Nc1nc2c(s1)C[C@@H](NCC[C@H]1CC[C@H](NC(=O)c3ccc4ccccc4c3)CC1)CC2", "note": "[Compound 10, Trans-N-(4-(2-((S)-2-amino-4,5,6,7-tetrahydrobenzo[d]thiazol-6-ylamino)ethyl)cyclohexyl)-2-naphthamide]", "values": [{"measurement": "Ki", "setting": "D2 receptor [1]; [6]", "result": "670 ± 140", "unit": "nM"}, {"measurement": "less potent than compound 6 to the D3 receptor", "setting": "D3 receptor", "result": 19, "unit": "times"}, {"measurement": "Ki", "setting": "D3 receptor; [7]", "result": 7.6, "unit": "nM"}, {"measurement": "Selectivity D1-like/D3", "setting": "D3 receptor", "result": ">8,000"}, {"measurement": "Selectivity D2-like/D3", "setting": "D3 receptor", "result": 88}, {"measurement": "Ki", "setting": "[2]", "result": 64000, "unit": "nM"}]}
{"smiles": "CCCN(CC[C@H]1CC[C@H](NC(=O)c2cc3ccccc3o2)CC1)[C@H]1CCc2nc(N)sc2C1", "note": "[Compound 11, Trans-N-(4-(2-(((S)-2-amino-4,5,6,7-tetrahydrobenzo[d]thiazol-6-yl)(propyl)amino)ethyl)cyclohexyl)benzofuran-2-carboxamide]", "values": [{"measurement": "Ki", "setting": "D2 receptor [1]; [6]", "result": "68 ± 4.6", "unit": "nM"}]}
{"smiles": "CCCN(CC[C@H]1CC[C@H](NC(=O)c2ccc3ccccc3c2)CC1)[C@H]1CCc2nc(N)sc2C1", "note": "[Compound 6, Trans-N-(4-(2-(((S)-2-amino-4,5,6,7-tetrahydrobenzo[d]thiazol-6-yl)(propyl)amino)ethyl)cyclohexyl)-2-naphthamide]", "values": [{"measurement": "in vivo functional activity at the D2 receptor", "setting": "D2 receptor [3]", "result": "no detectable agonist activity at the D2 receptor"}, {"measurement": "induction of hypothermia / changes in body temperature", "setting": "D2 receptor [3]", "result": "failed to induce changes in body temperature"}, {"measurement": "aqueous solubility", "setting": "Aqueous solubility", "result": "good aqueous solubility"}, {"measurement": "aqueous solubility", "setting": "Aqueous solubility; dihydrochloride salt form", "result": "greater than 100 mg/ml"}]}
{"smiles": "COc1ccc2c(c1)CCC1CN(CCC3CCC(NC(=O)c4ccc5ccccc5c4)CC3)CCN21", "note": "(centres unmarked) [Compound 4, reference compound]", "values": [{"measurement": "Ki", "setting": "D2 receptor [1]; [6]", "result": "> 10000", "unit": "nM"}, {"measurement": "Ki", "setting": "D3 receptor", "result": "5.7 ± 0.4", "unit": "nM"}, {"measurement": "Selectivity D1-like/D3", "setting": "D3 receptor", "result": ">5000"}, {"measurement": "Selectivity D2-like/D3", "setting": "D3 receptor", "result": ">1000"}, {"measurement": "aqueous solubility, known compounds", "setting": "[4]", "result": "poor aqueous solubility"}, {"measurement": "Ki", "setting": "[2]", "result": "> 50000", "unit": "nM"}]}
{"smiles": "CC(C)CCN(CC[C@H]1CC[C@H](NC(=O)c2ccc3ccccc3c2)CC1)[C@H]1CCc2nc(N)sc2C1", "note": "[Compound 8, Trans-N-(4-(2-(((S)-2-amino-4,5,6,7-tetrahydrobenzo[d]thiazol-6-yl)(isopentyl)amino)ethyl)cyclohexyl)-2-naphthamide]", "values": [{"measurement": "Ki", "setting": "D2 receptor [1]; [6]", "result": "345 ± 33", "unit": "nM"}, {"measurement": "less potent than compound 6 to the D3 receptor", "setting": "D3 receptor", "result": 5, "unit": "times"}, {"measurement": "Ki", "setting": "D3 receptor; [7]", "result": "2.2 ± 0.1", "unit": "nM"}, {"measurement": "Selectivity D1-like/D3", "setting": "D3 receptor", "result": ">5,000"}, {"measurement": "Selectivity D2-like/D3", "setting": "D3 receptor", "result": 157}, {"measurement": "Ki", "setting": "[2]", "result": 13000, "unit": "nM"}]}
{"smiles": "CCCN(CC[C@H]1CC[C@H](NC(=O)C=Cc2ccccc2)CC1)[C@H]1CCc2nc(N)sc2C1", "note": "[Compound 12, Trans-N-(4-(2-(((S)-2-amino-4,5,6,7-tetrahydrobenzo[d]thiazol-6-yl)(propyl)amino)ethyl)cyclohexyl)cinnamamide]", "values": [{"measurement": "Ki", "setting": "D2 receptor [1]; [6]", "result": "330 ± 69", "unit": "nM"}, {"measurement": "in vivo functional activity at the D2 receptor", "setting": "D2 receptor [3]", "result": "no detectable agonist activity at the D2 receptor; also recorded: no detectable agonist or antagonist activity at the D2 receptor"}, {"measurement": "induction of hypothermia / changes in body temperature", "setting": "D2 receptor [3]", "result": "failed to induce changes in body temperature"}, {"measurement": "effect on induction of hypothermia by pramipexole", "setting": "D2 receptor [5]", "result": "failed to alter the induction of hypothermia by pramipexole"}, {"measurement": "aqueous solubility", "setting": "Aqueous solubility", "result": "good aqueous solubility"}]}
{"smiles": "CCCN(CCCCNC(=O)c1ccc2ccccc2c1)[C@H]1CCc2nc(N)sc2C1", "note": "[Compound 5, (S)—N-(4-((2-amino-4,5,6,7-tetrahydrobenzo[d]thiazol-6-yl)(propyl)amino)butyl)-2-naphthamide]", "values": [{"measurement": "Ki", "setting": "D2 receptor [1]; [8]", "result": "2.7 ± 0.4", "unit": "nM"}, {"measurement": "Ki", "setting": "D2 receptor [1]; [9]", "result": "6700 ± 1500", "unit": "nM"}, {"measurement": "in vivo functional activity at the D2 receptor", "setting": "D2 receptor [3]", "result": "full agonist at the D3 and D2 receptors in vivo"}, {"measurement": "induction of hypothermia / changes in body temperature", "setting": "D2 receptor [3]", "result": "hypothermia was induced by compound 5 at higher doses"}, {"measurement": "Ki", "setting": "D3 receptor; [7]", "result": "0.043 ± 0.006", "unit": "nM"}, {"measurement": "aqueous solubility", "setting": "Aqueous solubility", "result": "good aqueous solubility"}]}
{"smiles": "CCCN[C@H]1CCc2nc(N)sc2C1", "note": "[Compound 1, pramipexole, reference compound]", "values": [{"measurement": "in vivo functional activity at the D2 receptor", "setting": "D2 receptor [3]", "result": "D2 agonist at higher doses"}, {"measurement": "induction of hypothermia / changes in body temperature", "setting": "D2 receptor [3]", "result": "induction of hypothermia occurring at higher doses"}, {"measurement": "Ki", "setting": "[2]", "result": "> 100000", "unit": "nM"}]}
{"smiles": "CCCCN(CC[C@H]1CC[C@H](NC(=O)c2ccc3ccccc3c2)CC1)[C@H]1CCc2nc(N)sc2C1", "note": "[Compound 7, Trans-N-(4-(2-(((S)-2-amino-4,5,6,7-tetrahydrobenzo[d]thiazol-6-yl)(butyl)amino)ethyl)cyclohexyl)-2-naphthamide]", "values": [{"measurement": "Ki", "setting": "D2 receptor [1]; [8]", "result": "55 ± 12", "unit": "nM"}, {"measurement": "Ki", "setting": "D2 receptor [1]; [9]", "result": "1300 ± 180", "unit": "nM"}, {"measurement": "less selectivity for the D3 receptor over the D2 receptor than compound 6", "setting": "D3 receptor; D2 high affinity binding component", "result": "~10", "unit": "fold"}, {"measurement": "Ki", "setting": "D3 receptor; [7]", "result": "0.74 ± 0.083", "unit": "nM"}, {"measurement": "Selectivity D1-like/D3", "setting": "D3 receptor", "result": ">7,000"}, {"measurement": "Selectivity D2-like/D3", "setting": "D3 receptor", "result": 74}, {"measurement": "Ki", "setting": "[2]", "result": 5400, "unit": "nM"}]}
